{"source": "patent US20020151562A1", "about": "“Compositions and methods for treating allergic fungal sinusitis” (priority 2001, published 2002)", "test_system": "patients diagnosed to have allergic fungal sinusitis resistant to treatment", "experiment": "Nasal Spray Study: patient questionnaire after two months of intranasal treatment", "settings": "for effectiveness in treating allergic fungal sinusitis, allergic rhinitis and asthma (symptom relief): extremely low dose, patients resistant to standard treatments including corticosteroids; for side effects: low dose, patients tested", "source_text": "Fifty-four patients were selected on the basis of their failure to respond to intranasal corticosteroids for the treatment of acute and chronic sinusitis and allergic rhinitis and positive skin tests to fungi. […] The age range was 6 years to 71 years.\nEach patient was instructed to use two sprays in each nostril twice daily, AM and PM for a total of four sprays per nostril per day. Treatment lasted for two months.\nTherefore, the status of the patients' symptoms were documented over a period of two months.\nThe following statements were posed to the patients after treatment for two months with regard to their symptoms before and after the course of treatment.", "key": {"[1]": {"settings": "intranasal, listed as compound of formula I"}}, "note": "“Also recorded” adds a separate entry of the source."}
{"smiles": "CC(C)(O)c1ccccc1CC[C@@H](SCC1(CC(=O)[O-])CC1)c1cccc(/C=C/c2ccc3ccc(Cl)cc3n2)c1.[Na+]", "note": "[sodium salt of montelukast, montelukast]", "values": [{"measurement": "Total Number of Patients Post Treatment Reporting Improvement (sinus pain, post nasal drip and nasal congestion worse in cold weather)", "setting": "52 tested, 21 reporting prior to treatment, intranasal, two months", "result": 14, "unit": "patients"}, {"measurement": "Total Number of Patients Post Treatment that Reported Improvement (worry that sinus pain, post nasal drip and nasal congestion affect health and make it difficult to sleep)", "setting": "52 tested, 31 reporting prior to treatment, intranasal, two months", "result": 30, "unit": "patients"}, {"measurement": "Total Number of Patients Reporting Improvement (sinus and nasal congestion worse around tobacco smoke, fumes or strong odors)", "setting": "52 tested, 42 reporting prior to treatment, intranasal, two months", "result": 24, "unit": "patients"}, {"measurement": "Total Number of Patients Post Treatment Reporting Improvement (sleeping trouble due to coughing and choking attacks, post nasal drip and sinus pain)", "setting": "52 treated, 29 reporting prior to treatment, intranasal, two months", "result": 28, "unit": "patients"}, {"measurement": "Total Number of Patients Post Treatment that Reported Improvement (allergy medicine does not control nasal congestion, sinusitis, post nasal drip and ear congestion)", "setting": "52 treated, 42 reporting prior to treatment, intranasal, two months", "result": 42, "unit": "patients"}, {"measurement": "Total Number of Patients Reporting Improvement (respiratory infection goes into sinuses, ears and nose)", "setting": "52 treated, 44 reporting prior to treatment, intranasal, two months", "result": 27, "unit": "patients"}, {"measurement": "Total Number of Patients Post Treatment Reporting Improvement (dust, pollen and pets cause nasal congestion, sinus pain, ear pain and dizziness)", "setting": "52 treated, 45 reporting prior to treatment, intranasal, two months", "result": 37, "unit": "patients"}, {"measurement": "patients with positive results and alleviation of major symptoms", "setting": "at the end of two months, of the fifty-two patients, intranasal saline spray", "result": "forty-two"}, {"measurement": "effectiveness in treating allergic fungal sinusitis, allergic rhinitis and asthma (symptom relief)", "setting": "intranasal", "result": "effective not only in relieving nasal congestions, sinus pain, post nasal drip, throat pain and serous otitis media, but it also helped their asthma; also recorded: effective"}, {"measurement": "effectiveness in treating allergic fungal sinusitis, allergic rhinitis and asthma (symptom relief)", "setting": "[1]", "result": "improvement in these non-responders was noticed"}, {"measurement": "side effects", "setting": "intranasal", "result": "no significant side effects"}, {"measurement": "side effects", "setting": "[1]", "result": "without harmful effects"}, {"measurement": "time to some recovery after application", "setting": "nasal spray, low dosages", "result": "within one day"}, {"measurement": "Total Number of Patients Reporting Improvement of Breathing Post-Treatment", "setting": "statement: trouble breathing or cough when walking or doing simple chores, 52 treated, 34 with trouble breathing before treatment, intranasal, two months", "result": 24, "unit": "patients"}]}
